3 compounds from patent publication US8536190B2, “Treating unwanted ocular conditions using an ascomycin macrolactam” (Allergan, Inc., priority 2007, dated 2013) can be followed below.

Format in all cases: in vivo, human
A short description of assay [1]: Treatment of epiphora (punctal stenosis) in a patient undergoing docetaxel treatments. Particulars: person, docetaxel every three weeks, medication containing 0.1% tacrolimus, after one week of daily treatment. An excerpt: A person undergoing docetaxel treatments every three weeks as part of their breast cancer therapy developed epiphora during the seventh week. […] The patient receives a medication containing 0.1% tacrolimus.

Assay [2] in a line: Preventative treatment of ocular conditions during weekly docetaxel treatments. To be noted: person, medication containing 1.0% pimecrolimus during the entire course of docetaxel treatments. From the text: A person is diagnosed with metastatic breast cancer. Their physician decides that the best course of cancer therapy includes weekly docetaxel treatments. In order to reduce or prevent the occurrence of unwanted ocular conditions as a result of the docetaxel treatments, the physician also prescribes a medication containing 1.0% pimecrolimus to be administered during the entire course of docetaxel treatments.

Assay [3] is described as follows: Treatment of epiphora (canalicular stenosis) after docetaxel chemotherapy. To be noted: person, docetaxel every three weeks, medication containing 0.03%, after one week of daily treatment. An excerpt:
A physician diagnosis a person complaining of excessive tearing with epiphora. The physician determines that the cause of this excessive tearing was canalicular stenosis, and believes that this ocular condition was brought on by the person's prostate cancer therapy, which included docetaxel treatments every three weeks. The patient receives a medication containing 0.03% […].

On to Tacrolimus, for which the “excessive tearing (epiphora) after treatment” value in assay [1] is given as “the excessive tearing subsides”.

Take `CC[C@@H]1/C=C(\C)C[C@H](C)C[C@H](OC)[C@H]2O[C@@](O)(C(=O)C(=O)N3CCCC[C@H]3C(=O)O[C@H](/C(C)=C/[C@@H]3CC[C@H](Cl)[C@H](OC)C3)[C@H](C)[C@@H](O)CC1=O)[C@H](C)C[C@@H]2OC` [pimecrolimus, Pimecrolimus]: in assay [2], the “occurrence of epiphora or symptoms of an ocular condition” value was “does not exhibit epiphora or show any symptoms of an ocular condition”.

On to Ascomycin [acromycin], for which the “excessive tearing (epiphora) after treatment” value in assay [3] is “the excessive tearing subsides”.
